Results as given in patent US20130243801A1, “EPITOPE THERAPY FOR INFECTIOUS DISEASES” (NEW YORK UNIVERSITY, priority 2010, published 2013).
Where no end group is shown, it is not given here.

Columns and labels:
[1] = target: complex of peptide 25 (aa 240-254) of M. tuberculosis Ag85B and the mouse MHC II allele I-A^b (Mycobacterium tuberculosis; mouse) (UniProt P14434); experiment: cell-based or functional assay
[2] = mouse, in vivo; for signs of toxicity: iv

Substance	frequency of IFN-γ+ P25TCRTh1 cells in the lungs of H37Rv-infected mice six hours after intravenous peptide 25 [1]	morbidity or mortality [2]	signs of toxicity [2]
P25TCR transgenic T-cell antigen receptor (on P25TCRTh1 CD4+ Th1 effector cells from P25TCR-Tg mice)	20 to 50%	–	–
FQDAYNAAGGHNAVF [peptide 25, FQDAYNAAGGHNAVF]	–	no morbidity or mortality was observed	Neither group of mice displayed any signs of toxicity
ISQAVHAAHAEINEAGR [OVA peptide, ISQAVHAAHAEINEAGR, reference compound]	–	–	Neither group of mice displayed any signs of toxicity
